How the values were obtained:
[1] = UV spectrum (absorption maximum and molar extinction); format: physicochemical
Excerpt: UV Spectrum (in Dioxan) • Maximum at 359 nm; e=34724
UV Spectrum (in Dioxan): • Maximum at 360 nm; e=37900
UV Spectrum (in Dioxan): • Maximum at 359 nm; e=35080
UV-Spectrum in Dioxan: Max. 351 nm, mol Ext. 65551
UV Spectrum in Ethanol: Max. 354 nm, mol. Ext. 65296

[2] = Solubility in Finsolve TN (C 12-15 alkylbenzoate); format: physicochemical
Excerpt: It has a good solubility for example in Finsolve TN (C 12-15 alkylbenzoate)>10%.
The obtained compound is an amorphous, yellow powder Solubility in Finsolve TN>30%

Row | SMILES | UV spectrum: 2. Maximum (wavelength) ([1]; in Dioxan) | UV spectrum: Maximum (wavelength; 1. Maximum where two are given) ([1]; in Dioxan) | UV spectrum: e / mol Ext. at the maximum (1. Maximum where two are given) ([1]; in Dioxan) | UV spectrum: e at 2. Maximum ([1]; in Dioxan) | Solubility in Finsolve TN (C 12-15 alkylbenzoate) [2] | UV spectrum: Max. (wavelength) ([1]; in Ethanol) | UV spectrum: mol. Ext. ([1]; in Ethanol)
1 | CCN(CC)c1ccc(C(=O)c2ccccc2C(=O)OC2CC(C)CCC2C(C)C)c(O)c1 (centres unmarked) [Example 6] |  | 351 nm | 38565 |  |  |  | 
2 | CCN(CC)c1ccc(C(=O)c2ccccc2C(=O)N2CCOCC2)c(O)c1 [Example 9] |  | 360 nm | 37900 |  |  |  | 
3 | CCN(CC)c1ccc(C(=O)c2ccccc2C(=O)N(CCO)CCO)c(O)c1 [Example 10] |  | 359 nm | 35080 |  |  |  | 
4 | CCN(CC)c1ccc(C(=O)c2ccccc2C(=O)OC/C=C/COC(=O)c2ccccc2C(=O)c2ccc(N(CC)CC)cc2O)c(O)c1 [Example 11] |  | 351 nm | 65551 |  | > 10% |  | 

Results, then the compound that gave them:

Row | UV spectrum: 2. Maximum (wavelength) ([1]; in Dioxan) | UV spectrum: Maximum (wavelength; 1. Maximum where two are given) ([1]; in Dioxan) | UV spectrum: e / mol Ext. at the maximum (1. Maximum where two are given) ([1]; in Dioxan) | UV spectrum: e at 2. Maximum ([1]; in Dioxan) | Solubility in Finsolve TN (C 12-15 alkylbenzoate) [2] | UV spectrum: Max. (wavelength) ([1]; in Ethanol) | UV spectrum: mol. Ext. ([1]; in Ethanol) | SMILES
5 | 360 nm | 336 nm | 57318 | 49032 |  |  |  | CCN(CC)c1ccc(C(=O)c2ccccc2C(=O)Nc2ccc(-c3nc4ccc(C)cc4s3)cc2)c(O)c1 [Example 2]
6 |  | 358 nm | 34848 |  |  |  |  | CCN(CC)c1ccc(C(=O)c2ccccc2C(=O)Nc2ccc(C(N)=O)cc2)c(O)c1 [Example 4]
7 |  | 359 nm | 34724 |  |  |  |  | CCN(CC)c1ccc(C(=O)c2ccccc2C(=O)Nc2ccccc2)c(O)c1 [Example 8]
8 |  |  |  |  | > 30% | 354 nm | 65296 | CCN(CC)c1ccc(C(=O)c2ccccc2C(=O)OCC(C)(C)COC(=O)c2ccccc2C(=O)c2ccc(N(CC)CC)cc2O)c(O)c1 [Example 12]
